Source: patent US20240082416A1, “AMATOXIN ANALOGS AND USES THEREOF” (THE UNIVERSITY OF BRITISH COLUMBIA, priority 2020, published 2024)

Assays:
RNA-polymerase II = RNA-polymerase II (Homo sapiens, UniProt P24928); settings: cited from earlier work
[1] = molecular target: eukaryotic RNA polymerase II (Pol II) (Homo sapiens, UniProt P24928); settings: literature; cited from earlier work
CHO cells [2] = test: Viability assay against CHO cells (MTT colorimetric assay); format: cell-based, Chinese hamster; settings: CHO cells, MTT assay, control
Protocol: (f) Cell culture: Cells were cultured in Minimum Essential Medium Eagle—Alpha Modification (α-MEM) or […] Dulbecco's Modified Eagle Medium (DMEM), purchased from Gibco. […] All cell culture plastic ware was obtained from Coming or Falcon. Cells were cultured at 37° C. in a humidified chamber with 5% CO2. When used in cell culture, DMSO was purified by filtration through a […] filter. All experiments were carried out in a laminar flow culture cabinet, unless otherwise noted.
Immortalized CHO cells had been stored in liquid nitrogen. To revive cells, a 1-mL tube of the frozen cells in medium containing 10% DMSO was warmed in a 30° C. water bath and diluted with 9 mL of fresh media. Media contained 10% FBS and 100 U/mL penicillin and […] streptomycin, unless otherwise indicated. The cells were incubated in a T-25 flask at 37° C. at 5% CO2. After 24 hours, the medium was aspirated and replaced with fresh medium. When cells reached a level of 90-100% confluence, they were sub-cultured. […] Once the cells were detached from the tissue culture flask, 3-5 mL media was added to quench the trypsin and the mixture was transferred to a 10 mL centrifuge tube. The mixture was centrifuged for 5 min at […], and the supernatant was discarded. The cells were suspended in fresh medium, diluted as required, and transferred to a new culture flask.
To assay cell viability, a nearly confluent tissue culture flask was trypsinized, and the cells were counted following treatment with Trypan blue, using a hemocytometer. The cells were then diluted to the appropriate stock concentrations in fresh medium and transferred in 100 μL to a 96-well plate using a multi-channel pipette. The number of cells plated varied from experiment to experiment. These were incubated at 37° C. and 5% CO2 for a 24-hour period to allow for adherence. The medium was aspirated, and fresh medium was added, which contained the desired additives in DMSO. The cells were then re-incubated for 72 h. At the completion of the experiment, a 100 μL aliquot of 25 mg/mL MTT in phosphate-buffered saline (PBS) was added to each well. The plate was incubated three hours further to allow for the formation of the formazan product in viable cells. The media was carefully aspirated, and the purple product was solubilized in DMSO. […] Data was processed in Microsoft Excel and GraphPad Prism. Experiments were performed in triplicates unless otherwise noted, and the error bars were calculated as the standard error of the mean.
Each cell line was plated in a 96-well plate, with 100 μL of the stock solution per well (5000 cells per well) and incubated for 24 hours. […] The cells were incubated for 72 hours, at which point viability was assessed as described.

HEK293 cells = format: cell-based, human; settings: wt-HEK293 cells lacking OATP1B3; 96 h
Protocol: (§1) . HEK293 and HEK-OATP1B3 cells were plated at 2.5×10^3 cells/well in a 1:1 mixture of Ham's F12 with DMEM containing 10% charcoal-stripped fetal calf serum (FCS) onto poly-D-lysine-coated 96-well plates and grown for 24 hours. Subsequently, cells were incubated with amanitin analogs at 8 different concentrations (1×10^−6 M to 1.28×10^−11 M, serial 1:5 dilutions). Following 96 h of drug exposure, cell viability was determined by a BrdU incorporation assay (Cell Proliferation ELISA, BrdU, Roche) and chemiluminescence was measured using a FLUOstar Optima plate reader (BMG LABtech). Data analysis was performed with GraphPad Prism 8 (GraphPad Software, Inc., La Jolla, CA) software to plot curve fits.

Pol II = molecular target: T1, Pol II (Homo sapiens, UniProt P24928); test: In vitro transcription runoff assay using HeLaScribe nuclear extract; format: biochemical; settings: mean ± standard deviation
T1 construct: HeLaScribe® nuclear extract containing Pol II and all other transcription factors; purchased Promega; host or cells: HeLa nuclear extract (endogenous protein)
Text: (h) In vitro transcription assay of synthetic amanitins containing analogs of Hyp: Primers were purchased from IDT via standard phosphoramidite chemistry. dNTP and rNTP were purchased from Thermofisher. GoTaq polymerase and HeLaScribe*Nuclear Extract in vitro Transcription System was purchased from Promega. Taq polymerase was purchased from NEB. [^32P] α-dGTP (3000 Ci/mmol 10 mCi/ml EasyTide) and [^32P] α-GTP (3000 Ci/mmol 10 mCi/ml EasyTide) were purchased from Perkin Elmer. QIAquick PCR purifcation kit was purchased from Qiagen. AcGFP1-N1 was a gift (Addgene plasmid #54705; http://n2t.net/addgene:54705; RRID:Addgene_54705). DNA Primer sequences were:
The DNA template for transcription runoff was synthesized by PCR with template pAcGFP-N1, and primers P1 and P2. To a final volume of 20 μL, 1 x GoTaq Buffer, 250 μM of each dNTP, 500 nM of each primers P1 and P2, […] pAcGFP-N1 and 0.05 U/μL GoTaq were employed to thermocycle for 30 cycles (30 s at 95° C., 30 s at 50° C. and 60 s at 72° C., Bio-Rad). A 1 μL aliquot of the amplified solution was resolved with 6×DNA loading dye in a 1% agarose gel containing […] and then visualized using GelDoc XR imager (Bio-Rad). Purification was completed via QIAquick PCR purification kit (Qiagen). The radioactive chromatographic standard was synthesized by PCR with template pAcGFP-N1, and primers P3 and P4. To a final volume of 50 μL, 1 x Thermopol Buffer, 200 μM of each dNTP, 500 nM of each primers P3 and P4, 10 pg/μL pAcGFP-N1 and 0.02 U/μL Vent polymerase, 1 μL [^32P] α-dGTP were employed to thermocycle for 30 cycles (30 s at 95° C., 30 s at 62° C. and 30 s at 72° C., Bio-Rad). A 1 μL aliquot of the amplified solution was resolved with 6×DNA loading dye in 8% denaturing PAGE and then visualized by autoradiography via the Typhoon 9200 imager (Molecular namics-Amersham-GE). Purification was completed via QIAquick PCR purification kit (Qiagen). The transcription runoff assay was modified from HeLaScribe® Nuclear Extract in vitro Transcription System (Promega). […]. The pellet was resolved by 8% denaturing PAGE and then visualized by autoradiography via the Typhoon 9200 imager (Molecular dynamics-Amersham-GE). Dosimetry was calculated by ImageJ, and the 3 parameter logistic fit was completed by Origin 2019 (OriginLab). […]
All data were presented in mean±standard deviation (n=3).

CHO cells [3] = settings: background statement, read-out: Ki (CHO cells readily killed); cited from earlier work
[4] = Cell viability assay (BrdU incorporation) on HEK293-OATP1B3 cells; format: cell-based, human; settings: human, HEK293-OATP1B3 cells (OATP1B3 overexpressing HEK293), HEK293-OATP1B3 cells
Protocol: as §1

HEK293-OATP1B3 cells = test: as above; format: cell-based, human; settings: HEK293-OATP1B3 vs HEK293
Protocol: as §1

Molecule: amanitin
- Kd (RNA-polymerase II): 3 nM

Molecule: proamanullin
- Ki [1]: 5000 to 20000 nM

Molecule: α-amanitin [Compound 1, reference compound]
- IC50 (CHO cells [2]): 350 to 1100 nM
- IC50 (HEK293 cells): 130 ± 80 nM
- Transcription activity E (%) (Pol II; 1 nM): 85.0 ± 2.4%
- Transcription activity E (%) (Pol II; 3 nM): 69.5 ± 9.4%
- Transcription activity E (%) (Pol II; 10 nM): 48.1 ± 9.8%
- Transcription activity E (%) (Pol II; 30 nM): 22.9 ± 2.6%
- Transcription activity E (%) (Pol II; 100 nM): 9.5 ± 4.1%
- Ki (CHO cells [3]): ~500 nM

Molecule: amanullin
- Ki [1]: 10 to 40 nM

Molecule: CC[C@H](C)[C@@H]1NC(=O)CNC(=O)[C@@H]2Cc3c([nH]c4cc(O)ccc34)[S@+]([O-])C[C@H](NC(=O)CNC1=O)C(=O)N[C@@H](CC(=O)O)C(=O)N1C[C@H](O)C[C@H]1C(=O)N[C@@H]([C@@H](C)[C@@H](O)CO)C(=O)N2 [β-amanitin, reference compound]
- IC50 at 96 h ([4]; 96 h): 8.5 ± 1.1 nM
- viability at 96 h, 1 µM ([4]; highest used concentration of 1 μM): 0%
- fold increase in toxicity / reduction of the IC50 value on HEK293-OATP1B3 relative to HEK293 cells (HEK293-OATP1B3 cells): 15 fold
